Tests used:
DBA/1 mice [1] = test: AGSz and S-IRA in DBA/1 mice, 8-hour testing protocol; format: in vivo, mouse
Description: (§1) The typical seizure semiology in the DBA/1 mice begins with a wild running phase, followed by clonic-tonic seizures and then tonic hind-limb extension that immediately leads to S-IRA during post-ictal behavioral depression (PID). The onset of S-IRA was visually determined by the occurrence of respiratory failure following loss of the righting reflex, relaxation of the pinnae, and then a generalized loss of muscle tone. These behaviors are reliable indicators of imminent sudden death in DBA mice. Resuscitation was initiated within 10 s after pinna relaxation and the generalized loss of muscle tone, which was effective in reversing S-IRA and reviving >90% of the mice. The mice were placed in a supine position, and a polyethylene tube (4.4 mm external diameter) connected to the outflow of a rodent respirator (Harvard Apparatus 680), pumping one cc of room air at 200 strokes/min, was the placed over the nostrils, which produced observable displacement of the chest. Respiratory support was provided until spontaneous breathing rhythm returned, which required ˜19 sec. The mice were monitored until they regained the righting reflex and then returned to their home cage. Video recordings of seizure behaviors and recovery were made for off-line evaluation and analysis, including the duration of PID, as indicated by time from muscle tone loss to return of the righting reflex.
(§2) The experiments herein disclosed examined the dose-response relationship of FFA (10-40 mg/kg, i.p.) on AGSz-induced behaviors in DBA/1 mice compared to vehicle (saline) treated control mice using different seizure-testing protocols. This initial protocol involved induction of AGSz at 30 min, 12 h and 24 h after drug administration, and subsequently at 24 h intervals until susceptibility to S-IRA returned. These studies were aimed at determining whether FFA can reduce the incidence (frequency) and severity of AGSz and susceptibility to S-IRA. […] To determine the effect of FFA on the severity of AGSz in DBA/1 mice, the ordinal scoring system of De Sarro and coworkers was used: no seizure=0; wild running=1; clonic seizure=2; tonic seizure=3; death/S-IRA=4. The median effective dose (ED50) for FFA for blocking AGSz at 30 min following the i.p. injection in DBA/1 mice was calculated using a second order polynomial equation (y=65.113x^2-2.0715x-63.578) that gave the best fit (R^2=0.9989).
(§3) The videos of seizure behaviors were analyzed visually, and the incidence (frequency) of AGSz, seizure severity, and incidence (frequency) of S-IRA following drug treatment were compared statistically to vehicle controls using the Chi-square, Mann-Whitney U or paired samples t-test with SPSS software. The ED50 was calculated using SigmaPlot 13 and Microsoft® Excel. The experimental protocols used in these studies were approved by the Laboratory Animal Care and Use Committee of Southern Illinois University School of Medicine, which are in accordance with National Institutes of Health guidelines for the care and use of laboratory animals. Measures to minimize animal usage as well as pain and discomfort were included in these procedures.
FIGS. 2A through 2D show a time-course of selective S-IRA blocking effect of FFA in DBA/1 mice (8 h testing protocol). The 8-h testing protocol during the first 24 h was employed in the next group of studies of the effect of 5-20 mg/kg (i.p.) doses of FFA. […] The severity of AGSz remained unaffected in the mice that received 5 (light horizontal line bars; n=9) mg/kg FFA. A significant return of AGSz severity among the FFA treated DBA/1 mice occurred by 24 h. [**p<0.01; #p<0.001 indicate statistically different from controls, Mann-Whitney U test].

[2] = test system: children with refractory epilepsy; conditions: 0.5 to 1 mg/kg/day; cited from earlier work
DBA/1 mice [3] = test: Audiogenic seizures (AGSz) and S-IRA in DBA/1 mice, initial testing protocol (30 min, 12 h, 24 h, then 24 h intervals); format: in vivo, mouse
Description: These studies involved age matched (<80 days) male DBA/1 mice obtained from ENVIGO. Because there were no significant sex differences in the AGSz incidence (frequency), severity and S-IRA susceptibility in DBA/1 mice, males were used in this study. The mice were primed as described in previous studies (Faingold et al., (2010). Epilepsy Behav. 17:436-40; Faingold, et al. (2011) Brain Res. 1418:104-10; Faingold, et al., (2011) Epilepsy Behav. 22:186-90). Briefly, the mice were maintained on an ad libitum diet under a 12 h light-dark cycle in a temperature and humidity-controlled laboratory animal medicine facility. Starting at postnatal day 23-25, the mice were primed and tested for consistent susceptibility to AGSz and S-IRA by presenting an intense acoustic stimulus, as described previously.
as §1, §2, §3

[4] = test system: zebrafish model of Dravet syndrome; conditions: in vivo; cited from earlier work
Dravet syndrome patients = conditions: cited from earlier work
[5] = Preliminary pharmacokinetic experiments in DBA/1 mice; format: in vivo, mouse; conditions: 16 h after 15 mg/kg
Procedure: DBA/1 mice show consistent susceptibility to sudden death due to S-IRA immediately following AGSz unless resuscitation is rapidly provided. In the present study FFA exerted a significant dose- and time-dependent blockade of S-IRA and AGSz. […] The significant incidence of selective S-IRA blockade was also seen in the mice that were tested initially at 16 h following 15 mg/kg of FFA (FIG. 4B), further confirming the effectiveness of the drug and the time-course of the effect. […] Furthermore, the dose of 15 mg/kg FFA in adult mouse, based on body surface areas in accordance with Reagan-Shaw and co-workers, translates to the clinically effective range [1.8 mg/kg/day (child) or 1.2 mg/kg/day (adult)] used in patients. The presently disclosed FFA doses are also similar to those in the rodent studies, which established the original usefulness of this drug.

[6] = 20 and 40 mg/kg i.p., starting at 30 min, vs saline

## CCNC(C)Cc1cccc(C(F)(F)F)c1 (racemic) [FFA, 3-trifluoromethyl-N-ethylamphetamine]
DBA/1 mice [1]; 5 mg/kg
  blocking any AGSz behavior: ineffective
  effect against tonic seizures: ineffective
  incidence of S-IRA: not affected
  severity of AGSz: unaffected
DBA/1 mice [1]; 15 mg/kg, 16 h time point (n=5)
  mice with selective blockade of S-IRA among those that showed tonic AGSz: 100%
DBA/1 mice [1]; 15 mg/kg, during time-course studies
  total incidence of selective S-IRA blockade: 70%
DBA/1 mice [1]; 10, 15 and 20 mg/kg i.p., starting at 8 h, vs saline
  median AGSz severity scores: significant reduction
DBA/1 mice [1]; 10, 15 and 20 mg/kg, starting at 8 h, vs saline
  incidence of S-IRA: significant reduction
DBA/1 mice [1]; 10-20 mg/kg
  return of susceptibility to tonic seizures: 16 to 48 h
DBA/1 mice [1]; 10-20 mg/kg, at 8 h, vs saline
  incidence of tonic seizures: significantly reduced
DBA/1 mice [1]; 16 h after 15 mg/kg, mice with selective S-IRA blockade, pre-drug 168.6±43.4 s
  duration of PID (loss of righting reflex): 34.6 ± 13.3 s
DBA/1 mice [1]; FFA treated mice, 8-h protocol
  return of AGSz severity: ≤ 24 h
  return of S-IRA susceptibility: 48 h
[2]
  number of seizures experienced by the patients: reduction
DBA/1 mice [3]; 10 mg/kg
  incidence (frequency) of S-IRA: not affected
  incidence of tonic seizures: not affected
DBA/1 mice [3]; 10 mg/kg i.p.
  incidence (frequency) of AGSz: No significant effect
DBA/1 mice [3]; 10 mg/kg, at 12 h
  AGSz severity: significantly reduced
  reduction of S-IRA: 36.4%
  reduction of tonic seizure: 54.6%
DBA/1 mice [3]; 10 mg/kg, at 12 h, not statistically significant
  mice showing S-IRA blockade following tonic seizure (selective S-IRA block): 18.2%
DBA/1 mice [3]; 15 mg/kg
  duration of AGSz blockade: < 24 h
  onset of AGSz blockade: 12 h
  tonic seizure blocking effect: delayed and transient
DBA/1 mice [3]; 20 mg/kg
  return of maximal seizure severity: 24 h
DBA/1 mice [3]; 40 mg/kg
  duration of seizure severity decrease: up to 8 days
  mice continuing to show reduced susceptibility to tonic AGSz and S-IRA for up to 8 days: 33.3%
  return of maximal seizure severity: 48 h
DBA/1 mice [3]; 10 and 15 mg/kg
  time at which reduction in severity score occurred: 12 h
DBA/1 mice [3]; 15, 20 and 40 mg/kg i.p. vs saline treated controls
  incidence (frequency) of AGSz: significantly reduce
DBA/1 mice [3]; 15, 20 and 40 mg/kg i.p., beginning at 30 min, vs saline
  incidence (frequency) of S-IRA: significant reduction
DBA/1 mice [3]; 20-40 mg/kg
  duration of reductions of seizure incidence, severity and S-IRA susceptibility: ≥ 48 h
DBA/1 mice [3]; 20 and 40 mg/kg i.p., at 30 minutes, vs saline-treated controls
  susceptibility to AGSz: significantly reduced
DBA/1 mice [3]; [6]
  median AGSz severity score: significant reduction
  tonic seizure incidence: significant reduction
DBA/1 mice [3]; FFA-treated mice, initial protocol
  return of S-IRA susceptibility: ≤ 72 h
DBA/1 mice [3]; Mus musculus, ip, 0.5 h, 30 min after i.p. injection, read-out: ED50 for blockade of AGSz
  ED50: 21.7 mg/kg
[4]
  blocking electrographic and seizure-like behavioral activity: effective
Dravet syndrome patients
  frequency and/or severity of intractable seizures: significantly reduced
[5]
  plasma level of FFA and area under the curve vs levels in Dravet syndrome patients after single oral dose (0.8 mg/kg): comparable

— US11571397B2, “Compositions and methods for treating seizure-induced sudden death” (ZOGENIX INTERNATIONAL LIMITED, priority 2018, dated 2023)
